# In patent publication US12545677B2, “Compounds useful as factor XIa inhibitors” (JANSSEN PHARMACEUTICA NV, priority 2020, dated 2026):
# Read-outs that look alike come from different tables or passages of the source.
# What was measured:
# human hepatocytes = assay: In vitro metabolism in human cryopreserved hepatocytes; assay type: in vitro ADME
# Description: In Vitro Metabolism of in Human Cryopreserved Hepatocytes
# The human hepatocytes used for in vitro metabolism of the compound of formula (I-A) were purchased from Bioreclamation IVT (Westbury, NY); cryopreserved human hepatocytes (lot number: UYG).
# Cryopreserved hepatocytes were rapidly thawed […] vials were placed in a 37° C. water bath for approximately 90 sec, then immediately added to pre-warmed hepatocyte thawing media. The cells were resuspended within the media and then centrifuged at 700×g for 7 minutes at room temperature.
# The supernatant was discarded, and the cells were resuspended in 2 mL of Krebs-Henseleit buffer containing 12.5 mM HEPES pH 7.4 (KHB). Cell viability and yield were determined by Trypan Blue exclusion. The hepatocytes were then diluted in KHB to a cell concentration of 2×10^6 cells/mL (500 μL/well in 10 mL glass tubes). The tubes were placed on a rotary shaker in a humidifier incubator supplied with 5% CO2 and allowed 15 minutes acclimation at 37° C. prior to use. The compound of formula (I-A) or positive control, diclofenac (10 μM), in KHB was then added to the hepatocytes to achieve a final concentration of 10 μM and cell concentration of 1×10^6 cells/mL (1000 μL final incubation volume). Cells were incubated for zero or 3 hours. At the end of the incubation period, the cells were quenched with 6-volumes of ice-cold acetonitrile containing 0.02% formic acid, vortexed and sonicated (5 min). Precipitated proteins were pelleted by centrifugation (3000 rpm, 10 minutes, 4° C.) and the supernatant was transferred to borosilicate tubes and evaporated to dryness under a gentle stream of nitrogen.
# The resulting residue after evaporation was reconstituted in 250 μL of water:acetonitrile (9:1 v/v) containing 0.01% formic acid with sonication and vortexing to aid solubilization of drug-derived materials prior to filtration using 0.45μ nylon filter at 10,000×g at room temperature for 10 minutes. The filtrate was transferred to a 96-well plate for liquid chromatography/ultraviolet/mass spectrometry (LC-UV/MS) analysis.
# LC/UV/MS (Liquid Chromatography/Ultraviolet/Mass Spectrometry)
# LTQ/Orbitrap (Thermo Scientific, Inc., Bremen, Germany) was carried out by data-dependent accurate mass measurements at resolving powers of 15,000 for full scan MS and 7,500 for MS^2 (also known as MS/MS or tandem mass spec) under single ion locked mass mode.
# Quantification of the unchanged drug and its metabolites was carried out by integration of the individual chromatographically separated UV peaks and provided the percentage of total peak area.
# CYP3A4 = target: T1, CYP3A4 (Homo sapiens, UniProt P08684); assay: Assessment of TDI potential using the IC50 shift method; assay type: in vitro ADME; conditions: CYP3A4 (testosterone)
# T1 construct: Frozen human liver microsomes (HLM) were thawed at 37° C; from tissue; host or cells: human liver microsomes
# Description: Assessment of TDI Potential Using the IC50 Shift Method
# To establish the potential for TDI of a particular P450 isozyme, the test compound is preincubated over a concentration range (typically 0.04 to 10 μM) with HLMs in the presence of cofactor NADPH for 30 minutes. After pre-incubation, a probe substrate known to be specifically metabolized to a defined metabolite by the isoform under investigation is then added at fixed concentration. Following a pre-defined incubation period (e.g. 10 minutes for the CYP3A4 testosterone assay), the reaction is terminated by addition of a suitable organic solvent (typically, acetonitrile) containing an internal standard. The samples are centrifuged prior to analysis by LC-MS/MS analysis and IC50 TDI value is calculated using curve fitting. This is compared to the IC50 for reversible inhibition, obtained when the pre-incubation step is performed in the absence of […] (IC50 Rev). A leftwards shift in the IC50 (i.e. increased inhibition) upon pre-incubation indicates the potential for TDI of that isozyme. The IC50 shift value is calculated as the ratio of IC50 Rev/IC50 TDI.
# The assay was performed on a fully automated Tecan robotic system. Sample analysis was performed via LC-MS/MSMS using stable-labelled internal standard of the probe substrate metabolite.
# T1 sequence (P08684 whole entry): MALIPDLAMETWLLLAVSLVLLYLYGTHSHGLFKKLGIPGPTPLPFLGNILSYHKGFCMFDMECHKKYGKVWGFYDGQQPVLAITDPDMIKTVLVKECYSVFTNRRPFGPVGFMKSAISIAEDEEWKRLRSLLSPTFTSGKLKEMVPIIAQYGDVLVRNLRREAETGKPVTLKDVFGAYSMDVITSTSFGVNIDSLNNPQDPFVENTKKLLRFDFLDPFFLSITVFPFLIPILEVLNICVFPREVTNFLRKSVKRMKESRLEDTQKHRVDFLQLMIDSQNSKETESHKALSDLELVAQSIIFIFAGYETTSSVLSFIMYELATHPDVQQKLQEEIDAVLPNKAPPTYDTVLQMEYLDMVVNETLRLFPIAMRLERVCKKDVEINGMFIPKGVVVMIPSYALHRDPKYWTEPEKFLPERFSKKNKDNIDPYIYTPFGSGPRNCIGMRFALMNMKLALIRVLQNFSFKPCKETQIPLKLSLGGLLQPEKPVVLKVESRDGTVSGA
SMILES,"turnover in human hepatocytes (human hepatocytes; 10 μM, 1×10^6 cells/mL, 3 hours)",major metabolic softspot (human hepatocytes; human hepatocytes),"metabolites generated from the incubation (human hepatocytes; human hepatocytes, 10 μM, 3 hours)","% maximum concentration, without pre-incubation (CYP3A4; HLM) [%]","% maximum concentration, with pre-incubation (CYP3A4; HLM, 30 minutes pre-incubation) [%]","IC50 (CYP3A4; HLM, 30 minutes pre-incubation with NADPH, read-out: IC50 with pre-incubation) [µM]","IC50 (CYP3A4; HLM, standard solvent conditions, read-out: IC50 without pre-incubation) [µM]",IC50 shift (CYP3A4; ratio of IC50 Rev/IC50 TDI),"identified as metabolite of the compound of formula (I-A) (human hepatocytes; human hepatocytes, carboxylic acid metabolite)"
"O=C1C=C(c2c(-n3cnnn3)ccc(Cl)c2F)C[C@H]2CC[C@@H](c3ncc(-c4ccnc(CO)c4F)[nH]3)N12 [Compound of formula (I-A), (3S,8aR)-7-(3-Chloro-2-fluoro-6-(1H-tetrazol-1-yl)phenyl)-3-(5-(3-fluoro-2-(hydroxymethyl)pyridin-4-yl)-1H-imidazol-2-yl)-2,3,8,8a-tetrahydroindolizin-5(1H)-one]",low turnover,(3-fluoropyridin-2-yl) methanol moiety,three oxidative and two glucuronide metabolites,68.2,62.8,17.5 ± 2.5,12.2 ± 1.4,0.70,–
"O=C(O)c1nccc(-c2cnc([C@@H]3CC[C@@H]4CC(c5c(-n6cnnn6)ccc(Cl)c5F)=CC(=O)N43)[nH]2)c1F [Compound of formula (II-A), 4-(2-((3S,8aR)-7-(3-chloro-2-fluoro-6-(1H-tetrazol-1-yl)phenyl)-5-oxo-1,2,3,5,8,8a-hexahydroindolizin-3-yl)-1H-imidazol-5-yl)-3-fluoropicolinic acid]",–,–,–,–,–,–,–,–,a metabolite in human hepatocytes
